System: Porcine liver esterase (PLE)
Experiment: Esterase-catalyzed hydrolysis of D609 prodrugs
Assay type: in vitro ADME
Procedure: FIG. 18A, FIG. 18B, FIG. 18C: Esterase-catalyzed hydrolysis of D609 prodrugs. Prodrugs (300 μM in 15% DMSO/PBS, pH 7.4), 1 (FIG. 18A), 2 (FIG. 18B) and 3 (FIG. 18C), were incubated at 37° C. in the presence of 0.1 unit/ml PLE. […] The data are presented as the mean±SEM of three independent assays.
To determine the hydrolytic property of D609 prodrugs 1, 2, and 3 (300 μM in 15% DMSO/PBS, pH7.4), these prodrugs were incubated with 0.1 unit/ml PLE at 37° C. After various times during incubation, the rate of hydrolysis of these D609 prodrugs was monitored by HPLC analysis. […] The concentration of D609 (μM) was calculated based on a linear D609-DTNB standard curve. The pseudo-first-order plots for the hydrolysis of these prodrugs were constructed from the logarithm of remaining ester versus time (FIG. 18). The end points of the reaction (150 min) were defined as when the hydrolysis of these prodrugs was over 99% complete and the release of D609 reached plateau. The pseudo-first-order rate constant (Kobs) and T1/2 (=0.693/Kobs) were calculated based on the slope of the linear portion of the curve for each of these prodrugs and are presented in Table 1 (Gilmer et al., 2002).

[1] = 300 μM, 0.1 unit/ml PLE, 37° C., pH 7.4

With `CCCC(=O)OCSC(=S)OC1CC2CC1C1CCCC21` (stereo not drawn) [Prodrug 2, S-methyleneoxybutyryl D609] the T1/2 [1] was 10.61 min, the kobs [1] was 0.06532 min⁻¹ and the “% D609 (molar recovery of D609)” value (complete hydrolysis by esterase) was 93%.

Source: patent publication US20070244076A1, “Site and Rate Selective Prodrug Formulations of D609 with Antioxidant and Anticancer Activity” (priority 2003, published 2007)
